The values that follow come from PubChem BioAssay (NCI).

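Exposure lasted 48 hours, with cells grown in 96-well plates and compounds tested at five concentrations. TGI: total growth inhibition.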 Some results are limits rather than exact numbers.

Holding throughout (test): NCI tumour cell line growth inhibition, 48 h
Assay [1] concerns LOX IMVI melanoma.
Assay [2] relates to HOP-92 NSCLC.
Assay [3] deals with SF-295 CNS.
The test system of assay [4] is OVCAR-4 ovarian.
The subject of assay [5] is NCI-H23 lung.
In assay [6] the test system is CCRF-CEM leukemia.
In assay [7] the test system is HCT-15 colon.
For assay [8], the system named is M14 melanoma.
Assay [9] concerns NCI-H522 lung.
In assay [10] the test system is IGROV1 ovarian.
For assay [11], the system named is SR leukemia.
Assay [12] concerns SF-539 CNS.
The test system of assay [13] is HOP-62 NSCLC.
Assay [14] has as its system EKVX NSCLC.
In assay [15] the test system is HCT-116 colon.
For assay [16], the system named is NCI-H460 lung.
Assay [17] relates to U251 CNS.
Assay [18] deals with HCC-2998 colon.
Assay [19] concerns UACC-257 melanoma.

As to `COc1ccc(C2=NN(c3ccccc3)C(c3cc4cc(Br)ccc4nc3Cl)C2)cc1` (stereo not given), the TGI in assay [1], in assay [2], in assay [3], in [4], in [5] and in assay [6] was over 25 µM in each case. For the same molecule, the TGI in assay [7], in [8], in assay [9], in assay [10], in assay [11] and in assay [12] was over 25 µM in each case. The TGI in assay [13], in [14] and in assay [15] was over 25 µM each time.

With `COc1ccc(N2C(=O)/C(=C\c3cccc(Oc4ccccc4)c3)S(=O)(=O)C2c2ccccc2)cc1` (stereo not given), the TGI in assay [1], in assay [2], in assay [4], in assay [5], in assay [6] and in assay [7] was over 100 µM each time. In addition, the TGI is over 100 µM in assay [16]; over 100 µM in assay [8]; 60.8 µM in assay [9]; over 100 µM in assay [17]; 59.3 µM in assay [11]; over 100 µM in [13]. Also, the TGI in assay [14] is 88 µM; in assay [15] it was over 100 µM; in [18], over 100 µM; in [19], over 100 µM.

Take `O=C1CC(=O)c2c(Cl)sc(Cl)c21`: the TGI in assay [1] is over 100 µM; in assay [2], over 100 µM; in [3], over 100 µM; in assay [4], 76.3 µM; in assay [5], over 100 µM; in [6] it was over 100 µM. Further, the TGI is over 100 µM in assay [7]; over 100 µM in assay [16]; over 100 µM in assay [8]; 47.1 µM in [9]; over 100 µM in assay [17]; over 100 µM in assay [10]. In addition, the TGI in [11] is 75.2 µM; in assay [12], over 100 µM; in assay [13] it was over 100 µM; in assay [14], over 100 µM; in [15], over 100 µM; in assay [19], over 100 µM.

`O=C(N/N=C1/C(=O)c2c3ccccc3cc3cccc1c23)c1cccc(Cl)c1`: the TGI in assay [1], in assay [2], in assay [4], in assay [5], in [6] and in assay [7] was over 100 µM in each case. In addition, the TGI in assay [16], in assay [8], in [17], in assay [10], in assay [11] and in assay [12] was over 100 µM in each case. Further, the TGI in [13], in [15], in [18] and in assay [19] was over 100 µM throughout.

As to `CN(C)C=Nc1cccc2cnccc12`, the TGI in assay [1], in assay [2], in assay [3], in [4], in assay [5] and in assay [6] was over 100 µM each time. Besides, the TGI in [7], in [8], in [9], in assay [17], in assay [10] and in [11] was over 100 µM in each case. For the same molecule, the TGI in assay [12], in assay [13], in assay [14], in assay [15] and in [19] was over 100 µM in each case.

Turning to `CN1CCN(C(=S)N(C(=O)c2ccco2)c2ccccc2)CC1`, the TGI in assay [1], in assay [2], in assay [3], in assay [4], in [5] and in [6] was over 100 µM throughout. Besides, the TGI in assay [7], in [16], in assay [8], in [9], in [17] and in assay [10] was over 100 µM in each case. The TGI in assay [11], in [18] and in [19] was over 100 µM throughout.

With `C=C1CC(Cn2cc(C)c(=O)[nH]c2=O)(c2ccc(-c3ccccc3)cc2)OC1=O` (stereo not given), the TGI amounted to 3.49 µM in [1]; 3.75 µM in [2]; 14.2 µM in assay [3]; 6.76 µM in assay [4]; 3.99 µM in assay [5]; 3.72 µM in assay [7]. Moreover, the TGI in assay [16] is 20.8 µM; in [9], 3.59 µM; in assay [17], 16.1 µM; in assay [10] it was 3.74 µM; in [11], 12.8 µM; in assay [12], 8.38 µM. Further, the TGI worked out at 29.4 µM in [13]; 22.1 µM in [14]; 2.03 µM in assay [15]; 5.23 µM in assay [18]; 5.75 µM in [19].

As to `O=C1C2CCC(C2)C12CC1(c3ccccc3)C(=O)c3ccccc3N1O2` (stereo not given), the TGI in assay [2], in assay [3], in assay [4], in [5], in assay [6] and in assay [7] was over 100 µM in each case. For the same molecule, the TGI in assay [8], in [9], in assay [17], in assay [10], in assay [11] and in assay [12] was over 100 µM each time. For the same molecule, the TGI in [13], in assay [14], in assay [15], in assay [18] and in assay [19] was over 100 µM throughout.

As for `COc1ccc([N-]/C(=N\n2c(=O)c(C)nn(C)c2=S)N(c2ccc(OC)cc2)c2nn3c(=O)c(C)n[n+](C)c3s2)cc1`, the TGI in [1], in assay [2], in assay [3], in [4], in [5] and in assay [6] was over 100 µM in each case. Moreover, the TGI in [7], in assay [16], in assay [8], in assay [9], in [17] and in [10] was over 100 µM throughout. Besides, the TGI in assay [11], in assay [12], in assay [13], in assay [14], in [15] and in [19] was over 100 µM each time.

Consider `CN(C)CC(CO)(CN(C)C)CN(C)C`, for which the TGI in assay [2], in assay [3], in [4], in assay [5], in assay [6] and in assay [7] was over 100 µM throughout. For the same molecule, the TGI in assay [16], in [8], in [9], in assay [17], in [10] and in assay [11] was over 100 µM each time. Further, the TGI in [12], in assay [13], in [14], in assay [15] and in [19] was over 100 µM in each case.

On to `O=C1c2ccccc2C(=O)N1CCCCCCNOCCCN1C(=O)c2ccccc2C1=O`, for which the TGI was over 100 µM in assay [1]; over 100 µM in [2]; over 100 µM in assay [3]; 93.3 µM in assay [4]; 97.1 µM in assay [5]; over 100 µM in assay [6]. The TGI is over 100 µM in assay [7]; over 100 µM in assay [16]; 61.4 µM in [8]; 79.3 µM in assay [9]; over 100 µM in [17]; over 100 µM in [10]. Further, the TGI in assay [11] is over 100 µM; in assay [13], over 100 µM; in [14] it was over 100 µM; in assay [15], over 100 µM; in assay [18] it was over 100 µM; in assay [19], 86 µM.

Regarding `CC(=O)OC1CC2(c3ccccc3)C(=O)c3ccccc3N2O1` (stereo not given), the TGI in assay [2], in assay [3], in assay [4], in assay [5], in assay [6] and in assay [7] was over 100 µM throughout. Moreover, the TGI in assay [8], in [9], in [17], in assay [10], in assay [11] and in [12] was over 100 µM throughout. Further, the TGI in [13], in assay [14], in assay [15], in assay [18] and in [19] was over 100 µM in each case.

In the case of `N#CC1CCN2N=C(c3ccccc3)SC12c1ccccc1` (stereo not given), the TGI in assay [1], in assay [2], in assay [3], in assay [4], in [5] and in [7] was over 100 µM in each case. The TGI in [16], in assay [8], in assay [9], in [17], in [10] and in assay [11] was over 100 µM in each case. Moreover, the TGI in [12] was over 100 µM; in [13] it was over 100 µM; in assay [14] it was 97.3 µM; in assay [15] it was over 100 µM; in [18], over 100 µM; in assay [19], over 100 µM.

On to `Cc1c(C(=O)O)c2cc3ccccc3cc2c(=O)n1C`, for which the TGI in assay [1], in [2], in [3], in [4], in assay [5] and in [7] was over 10 µM each time. For the same molecule, the TGI in [16], in assay [8], in [9], in assay [17], in assay [10] and in [11] was over 10 µM in each case. For the same molecule, the TGI in assay [12], in assay [14], in [18] and in assay [19] was over 10 µM in each case.

Turning to `CCCCCC(=O)OCC1(CO)C/C(=C\CC(C(C)C)C(C)C)C(=O)O1` (stereo not given), the TGI in [1] was 70 µM; in assay [2], over 100 µM; in [3], over 100 µM; in [4], over 100 µM; in assay [5] it was over 100 µM; in [6], over 100 µM. Also, the TGI is over 100 µM in assay [7]; over 100 µM in assay [16]; over 100 µM in assay [8]; 81.3 µM in assay [9]; 85.3 µM in [17]; over 100 µM in assay [10]. Besides, the TGI in [11], in [13], in assay [14], in assay [15], in [18] and in assay [19] was over 100 µM in each case.

Consider `O=c1c2ccccc2nc(-c2ccccc2)n1NC(=S)Nc1ccc(Cl)cc1[N+](=O)[O-]`, for which the TGI in [1], in assay [2], in [3], in assay [4], in [5] and in assay [6] was over 100 µM throughout. The TGI in assay [7], in assay [16], in assay [8], in [9], in assay [17] and in [10] was over 100 µM each time. Besides, the TGI in assay [11], in assay [12], in assay [13], in assay [15] and in assay [19] was over 100 µM each time.
